Measured values from patent US5292498A, “Method of treating lung disease with uridine triphosphates” (The University of North Carolina At Chapel Hill, priority 1991, dated 1994).

Assays:
[1] = tested on: normal human nasal epithelial cells; experiment: Intracellular calcium [Ca^2+ ]i in single normal human nasal epithelial cells (Fura-2); format: cell-based; settings: concentration-effect curves, FIG. 3
Procedure: (§1) Freshly excised human nasal epithelium from normal or cystic fibrosis subjects was grown in primary culture in F-12, hormone-supplemented medium in accordance with known procedures. See R. Wu et al., Am. Rev. Respir. Dis. 132, 311-320 (1985). For [Ca^2+ ]i measurements, cultures were grown on non-fluorescent vitrogen substrates on glass coverslips. Cultures for electrophysiologic studies were grown to confluence on permeable collagen matrix supports (CMS), allowing addition of agonists to the basolateral or apical surface of the epithelial sheet.
Primary human nasal epithelial cells grown to confluence on vitrogen coated coverslips were loaded with a final concentration of 3 μM Fura-2/AM at 37° C. for 30 minutes. The cells were then washed in NaCl Ringer and mounted in a chamber for measurements of fluorescence. To reduce the rate of leakage of Fura-2 from the cell into the extracellular space and avoid time-dependent compartmentalization of the probe, all measurements of [Ca^2+ ]i were performed at 25° C. At this temperature,no vesicular bright spots indicative of compartmentalization of the probe were observed.
Measurements of [Ca^2+ ]i in single human nasal epithelial cells were obtained with a modular microspectrofluorimeter (SPEX Industries, Inc., Edison, N.J.) attached to a Zeiss Axiovert IM 35 microscope. The system was equipped with a xenon lamp, beam splitter, two monochromators and a rotating chopper mirror that permitted excitation of cell fluorescence at alternating wavelengths of 340 and 380 nm (emission ≥450 nm). The fluorescent signal from a single cell was measured with a photometer equipped with a pinhole (spot diameter of 3-5 μm) that excluded signals from adjacent cells.
After agonist was added, the fluorescent signal was quenched by a NaCl ringer solution containing 1.5×10^-4 M digitonin and 10^-3 M MnCl2. The remaining signal at each excitation wavelength, equivalent to the background fluorescence in non loaded cells, was subtracted from data from Fura-2/AM loaded cells before the ratio (340 nm/380 nm) was taken. The 340 nm/380 nm ratio was converted to an actual [Ca^2+ ]i measurement by using the external calibration standards and the formula derived by G. Grynkiewicz et al., J. Biol. Chem. 260, 3440-3450 (1985), used with dual wavelength measurements: [Ca^2+ ]i =K [(Rx --Ro)/(Rs --Rx)], with Ro and Rs representing the ratios at 0 Ca^2+ and saturating Ca^2+, respectively. Rx represents the experimental ratio.
To investigate whether changes in [Ca^2+ ]i might be related to regulation of ion transport, receptor characterization was performed by measuring changes in [Ca^2+ ]i in response to a number of nucleotide drugs. Concentration-effect curves for agonists active at P2x, P2y subtype or UTP sensitive receptors and other purine or pyrimidine receptor agonists were generated, measuring mean change in [Ca^2+ ]i in response to agonist concentration. Data are shown in FIG. 3, which gives log concentration-effect relationships of purinergic and pyrimidinergic compounds on [Ca^2+ ]i (mean change in [Ca^2+ ]i over basal levels).

[2] = tested on: normal human nasal epithelium; experiment: Bioelectric studies (short circuit current, Isc) of normal human nasal epithelium in Ussing chambers; format: cell-based; settings: for change in ion transport rates / rank order of potency for increase in Isc / character of concentration-effect curve including 10^-3 M / character of log concentration-effect curve: basolateral surface; for change in ion transport rates: compared to ATP curve; for change in ion transport rates / rank order of potency for increase in Isc: FIG. 1; for rank order of potency for Cl^- secretion: FIG. 2; for character of concentration-effect curve including 10^-3 M: 10^-3 M drug considered; for character of log concentration-effect curve: 10^-7 to 10^-4 M; for increase in Isc: dipyridamole 10^-6 M
Procedure: as §1
(§2) Confluent monolayers of primary human nasal epithelium were mounted in modified Ussing chambers in accordance with known procedures. See, e.g., R. Boucher et al., J. Physiol. (Lond.) 405, 77-103 (1988); M. Knowles et al., Science 221, 1067-1070 (1983). The studies described below were performed under short circuit current conditions at 37° C., and in some studies, amiloride was added to the apical bath (10^-4 M) to block transepithelial sodium transport. Changes in transepithelial potential difference (Vt), resistance (Rt) and short circuit current (Isc) were measured in response to addition of various nucleotides. Each cultured preparation was exposed to only one concentration of an agonist on either the basolateral or apical surface to avoid the tachyphylaxis observed in preliminary cumulative dose response studies. To construct concentration-effect relationships of responses to nucleotides, it was assumed that the same maximum response to an agonist could be induced from each tissue culture preparation from the same individual.
The effects of extracellular ATP on normal human nasal epithelium were investigated employing bioelectric measurements of ion transport activity when the nucleotide was applied to either the apical or basolateral membrane. […] In general, the change in Isc induced by application of ATP to the apical or the basolateral side returned to baseline or below within 5 minutes after addition of agonist. […] Apical pretreatment with amiloride (10^-4 M) removes active Na^+ absorption as a component of the Isc so that the residual Isc reflects a Cl^- secretory current (R. Boucher et al., J. Clin. Invest. 78, 1245-1252 (1986); N. Willumsen et al., Am. J. Physiol. 256, C1033-C1044 (1989)).
A concentration-effect relationship was found when ATP was applied to normal human nasal epithelium under basal conditions (data not shown). Comparisons were made between responses of tissues from different donors based on the peak change in Isc following ATP application. The curve describes the mean peak change in Isc in response to log increasing concentrations of ATP applied to the apical or basolateral surface.
Concentration-effect relationships were also found for ATP applied to the apical or basolateral membrane of amiloride-pretreated tissues (data not shown). Again, the nucleotide's effect on ion transport was examined as the mean peak change in Isc after ATP application.
(§3) The purinergic receptor subtype(s) linked to regulation of ion transport of human nasal epithelium were characterized by obtaining concentration-effect relationships for a variety of purine and pyrimidine agonists in preparations derived from normal and CF patients. We characterized receptor subtype(s) on the […] surface by measuring nucleotide effect on basal Na^+ transport rates. Because therapies designed to induce Cl^- secretion might best be delivered by the aerosol route, receptor subtype characterization on the apical barrier was performed in the presence of amiloride. The effect of extracellular nucleotides on ion transport is reported as the percent change in Isc from control values when applied to the basolateral or apical surface of the culture. Basal pre-agonist currents were similar for tissues in each concentration group.

[3] = 25° C.; read-out: Kd (effective dissociation constant for Fura-2); cited from earlier work
[4] = tested on: CF nasal epithelial cells; experiment: Intracellular calcium [Ca^2+ ]i in single CF nasal epithelial cells (Fura-2); format: cell-based, human; settings: FIG. 6
Procedure: Freshly excised human nasal epithelium from normal or cystic fibrosis subjects was grown in primary culture in F-12, hormone-supplemented medium in accordance with known procedures. See R. Wu et al., Am. Rev. Respir. Dis. […] For [Ca^2+ ]i measurements, cultures were grown on non-fluorescent vitrogen substrates on glass coverslips. Cultures for electrophysiologic studies were grown to confluence on permeable collagen matrix supports (CMS), allowing addition of agonists to the basolateral or apical surface of the epithelial sheet.
Primary human nasal epithelial cells grown to confluence on vitrogen coated coverslips were loaded with a final concentration of 3 μM Fura-2/AM at 37° C. for 30 minutes. The cells were then washed in NaCl Ringer and mounted in a chamber for measurements of fluorescence. To reduce the rate of leakage of Fura-2 from the cell into the extracellular space and avoid time-dependent compartmentalization of the probe, all measurements of [Ca^2+ ]i were performed at 25° C.
Measurements of [Ca^2+ ]i in single human nasal epithelial cells were obtained with a modular microspectrofluorimeter (SPEX Industries, Inc., Edison, N.J.) attached to a Zeiss Axiovert IM 35 microscope. […] The fluorescent signal from a single cell was measured with a photometer equipped with a pinhole (spot diameter of 3-5 μm) that excluded signals from adjacent cells. […]

[5] = tested on: CF human nasal epithelium; experiment: Bioelectric studies (Isc) of cystic fibrosis (CF) human nasal epithelium; format: cell-based; settings: for Isc response tracing: apical, amiloride-pretreated, FIG. 4C
Procedure: as §1, §2, §3
Availability of Cystic Fibrosis (CF) tissues is limited, and our investigation of effects of nucleotides was restricted to examining regulation of Cl^- secretion rates and [Ca^2+ ]i levels by ATP and UTP.

[6] = apical surface, amiloride-pretreated

| SMILES | effectiveness for raising [Ca^2+ ]i [1] | rank order of potency for Cl^- secretion [2, 6] | rank order of potency for increase in Isc [2] | character of concentration-effect curve including 10^-3 M [2] | character of log concentration-effect curve [2] | also measured |
| --- | --- | --- | --- | --- | --- | --- |
| Nc1ncnc2c1ncn2[C@@H]1O[C@H](COP(=O)(O)OP(=O)(O)CP(=O)(O)O)[C@@H](O)[C@H]1O [βγMeATP, β,γ-methylene ATP] | little effect |  |  |  |  | change in ion transport rates [2]: little change in ion transport rates |
| Cc1ccc(N(CC(=O)O)CC(=O)O)c(OCCOc2cc3cc(-c4ncc(C(=O)O)o4)oc3cc2N(CC(=O)O)CC(=O)O)c1 [Fura-2] |  |  |  |  |  | Kd [3]: 157 nM |
| Nc1ncnc2c1ncn2[C@@H]1O[C@H](COP(=O)(O)OP(=O)(O)O)[C@@H](O)[C@H]1O [ADP] |  | ATP≥UTP>ATPγS>ADP>2MeSATP>ADPβS | 2MeSATP>UTP≥ATP>ATPγS>ADP>ADPβS |  |  |  |
| CSc1nc(N)c2ncn([C@@H]3O[C@H](COP(=O)(O)OP(=O)(O)OP(=O)(O)O)[C@@H](O)[C@H]3O)c2n1 [2MeSATP, 2-methylthio ATP] | little effect | ATP≥UTP>ATPγS>ADP>2MeSATP>ADPβS | 2MeSATP>UTP≥ATP>ATPγS>ADP>ADPβS |  |  |  |
| Nc1ncnc2c1ncn2[C@@H]1O[C@H](COP(=O)(O)CP(=O)(O)OP(=O)(O)O)[C@@H](O)[C@H]1O [αβMeATP, α,β-methylene ATP] | little effect |  |  |  |  | change in ion transport rates [2]: little change in ion transport rates |
| Nc1ncnc2c1ncn2[C@@H]1O[C@H](COP(=O)(O)OP(O)(O)=S)[C@@H](O)[C@H]1O [ADPβS] | little effect | ATP≥UTP>ATPγS>ADP>2MeSATP>ADPβS | 2MeSATP>UTP≥ATP>ATPγS>ADP>ADPβS | biphasic in character | sigmoidal character |  |
| Nc1ncnc2c1ncn2[C@@H]1O[C@H](CO)[C@@H](O)[C@H]1O [adenosine] |  |  |  |  |  | increase in Isc ([2]; 10^-4 M, apical surface, amiloride-pretreated, n=8): 10±6%; increase in Isc ([2]; 10^-5 M or 10^-4 M, basolateral barrier, n=8 each dose): less than 5%; increase in Isc ([2]; 10^-5 M, apical surface, amiloride-pretreated, n=7): 10±7%; change in Isc compared to ATP ([2]; following preincubation with dipyridamole 10^-6 M): only small and variable changes in Isc compared to ATP |
| O=c1ccn([C@@H]2O[C@H](COP(=O)(O)OP(=O)(O)OP(=O)(O)O)[C@@H](O)[C@H]2O)c(=O)[nH]1 [UTP, uridine 5'-triphosphate] | most effective agonists | ATP≥UTP>ATPγS>ADP>2MeSATP>ADPβS | 2MeSATP>UTP≥ATP>ATPγS>ADP>ADPβS | biphasic in character | sigmoidal character | [Ca^2+ ]i response in CF tissues [4]: Increases in [Ca^2+ ]i; Isc response tracing ([5]; UTP 10^-4 M as printed): Cl^- secretory response; Isc response tracing ([5]; UTP 10^-6 M as printed): Cl^- secretory response; change in Isc over basal levels ([5]; apical surface, amiloride-pretreated CF tissues): routinely stimulated increases in Cl^- secretion |
| Nc1ncnc2c1ncn2[C@@H]1O[C@H](COP(=O)(O)OP(=O)(O)OP(O)(O)=S)[C@@H](O)[C@H]1O [ATPγS] | most effective agonists | ATP≥UTP>ATPγS>ADP>2MeSATP>ADPβS | 2MeSATP>UTP≥ATP>ATPγS>ADP>ADPβS | biphasic in character | sigmoidal character |  |
| O=c1[nH]c(=O)n([C@@H]2O[C@H](COP(=O)(O)OP(=O)(O)OP(=O)(O)O)[C@@H](O)[C@H]2O)cc1Br [5BrUTP, 5-bromo-uridine 5'-triphosphate] | essentially as effective as UTP |  |  |  |  |  |
